# In ChEMBL document CHEMBL5729391, “Acyclic antivirals” (2022):
# Assay: Inhibition of HBV: Determination of 50% inhibitory concentration (EC50) of compounds in […] cells were performed by the following procedure. On the first day, cells were seeded at 30,000 cells per 100 μL well in Biocoat collage coated flat bottom 96 well plates. On the following day, test compounds were solubilized in 100% DMSO to 100× the desired final testing concentration. Each compound was then serially diluted (1:3) up to 9 different concentrations. Compounds in 100% DMSO are reduced to 10% DMSO by diluting 1:10 in assay media. The final DMSO concentration was 1%. The cells were incubated at 37° C. for 72 hours.The antiviral activity was measured using a quantitative kinetic reverse transcription-polymerase chain reaction (RT-PCR) assay directly measuring the HBV viral copy numbers from the supernatant of HepG2.117 cells. EC50 was defined as the concentration of compound at which the HBV viral copy numbers from the HepG2.117 cells was reduced 50% relative to its level in the absence of compound. HBV viral copy numbers are normalized to the level observed in the absence of inhibitor, which was defined as 100%.
# Type: cell-based
row,SMILES,EC50
1,Nc1ncnc2c(CC3(OCP(=O)(O)O)CC3)cnn12,in the range around 55000 nM
2,CC(C)OC(=O)OCOP(=O)(CO[C@@H](C)Cc1cnn2c(N)ncnc12)OCOC(=O)OC(C)C,< 1000 nM
3,CC(C)OC(=O)[C@H](C)NP(=O)(COC(C)Cc1cnc2c(=O)[nH]c(N)nn12)Oc1ccccc1 (some centres undefined),< 1000 nM
4,CC(Cc1cnc2c(=O)[nH]c(N)nn12)OCP(=O)(O)O (centres undefined),< 1000 nM
5,CC(C)OC(=O)OCOP(=O)(CO[C@H](C)Cc1cnc2c(N)ncnn12)OCOC(=O)OC(C)C,< 1000 nM
6,CC(C)OC(=O)OCOP(=O)(CO[C@H](C)Cc1ccc2c(N)ncnn12)OCOC(=O)OC(C)C,< 1000 nM
7,Nc1ncnn2c(C[C@H](CF)OCP(=O)(O)O)cnc12,< 1000 nM
8,Nc1ncnc2c(C[C@H](OCP(=O)(O)O)C(F)F)cnn12,in the range around 5500 nM
9,CC(C)OC(=O)OCOP(=O)(COC(C)Cc1ccc2c(=O)[nH]c(N)nn12)OCOC(=O)OC(C)C (centres undefined),< 1000 nM
10,CC(C)OC(=O)OCOP(=O)(COCCc1ccc2c(N)ncnn12)OCOC(=O)OC(C)C,in the range around 5500 nM
11,CC(C)OC(=O)[C@H](C)NP(=O)(CO[C@H](CF)Cc1cnn2c(N)ncnc12)Oc1ccccc1 (some centres undefined),< 1000 nM
12,CC(C)OC(=O)[C@H](C)NP(=O)(CO[C@H](C)Cc1cnn2c(N)ncnc12)Oc1ccccc1 (some centres undefined),< 1000 nM
13,CC(C)OC(=O)OCOP(=O)(COC(CF)Cc1cnn2c(N)ncnc12)OCOC(=O)OC(C)C (centres undefined),< 1000 nM
14,CC(C)OC(=O)OCOP(=O)(CO[C@H](C)Cc1cnn2c(N)ncnc12)OCOC(=O)OC(C)C,> 100000 nM
15,CC(C)OC(=O)OCOP(=O)(COC(C)Cc1ccc2c(N)nc(N)nn12)OCOC(=O)OC(C)C (centres undefined),in the range around 5500 nM
16,CC(C)OC(=O)[C@H](C)NP(=O)(CO[C@H](C)Cc1cnc2c(N)ncnn12)Oc1ccccc1 (some centres undefined),< 1000 nM
17,Nc1ncnc2c(C[C@@H](OCP(=O)(O)O)C(F)F)cnn12,in the range around 5500 nM
18,CC(C)OC(=O)[C@H](C)NP(=O)(CO[C@@H](CF)Cc1cnn2c(N)ncnc12)Oc1ccccc1 (some centres undefined),< 1000 nM
19,Nc1ncnn2c(C[C@@H](CF)OCP(=O)(O)O)cnc12,in the range around 55000 nM
